Measured values published in publication PMC9953885 (Biosensors, 2023).
Counter-ions that a name gives are not always drawn.

Biological target: T1, human pancreatic lipase (hPL) (Homo sapiens, UniProt P16233)
T1 construct: gene PNLIP
T1 sequence (P16233 17-465): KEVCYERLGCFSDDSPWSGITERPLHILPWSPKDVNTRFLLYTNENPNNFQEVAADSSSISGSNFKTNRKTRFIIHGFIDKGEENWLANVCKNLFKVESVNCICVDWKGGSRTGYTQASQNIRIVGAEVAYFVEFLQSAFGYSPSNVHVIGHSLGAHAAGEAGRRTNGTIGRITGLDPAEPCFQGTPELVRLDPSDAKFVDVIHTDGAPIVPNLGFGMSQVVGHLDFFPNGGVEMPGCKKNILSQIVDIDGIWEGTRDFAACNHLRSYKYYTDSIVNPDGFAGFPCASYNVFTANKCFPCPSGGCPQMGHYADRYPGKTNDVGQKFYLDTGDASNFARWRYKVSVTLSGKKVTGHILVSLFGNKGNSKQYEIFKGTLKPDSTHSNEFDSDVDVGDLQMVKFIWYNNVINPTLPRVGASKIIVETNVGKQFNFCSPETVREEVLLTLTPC
Conditions: 10 µM; inhibitor
Procedure: First, we evaluated the inhibitory effect of 94 natural products derived from herbs and 94 drugs on hPL. In our high-throughput screening system, 1 ug/mL hPL was used, and the final concentration of the 94 natural products derived from herbs and 94 drugs used was 10 μM. Other conditions were the same as in the selectivity experiments. […] RLE was incubated with hPL and various enzymes, such as hCES1A, hCES2A, CA, AchE, BchE, 5-HKE, lysozyme, trypsin, thrombin, α-CT, FAP, PREP, pepsin, α-amylase, plasmin, notum and hSA, in a 100 µL incubation mixture consisting of Tris-HCl (pH = 7.4, 25 mM), NaCl (150 mM), CaCl2 (1 mM) and porcine bile salt (0.1 mg/mL) at a concentration of 1.5 µg/mL. The reaction was initiated by adding RLE to the preincubated enzyme mixture at 37 °C, and metabolite formation was determined by measuring the fluorescence intensity of resorufin at 590 nm. In addition, several amino acids (IIe, His, Trp, Val, Leu, Tyr, Ala, Thr, Pro, Asp, Lys, Met, Cys, Ser, Phe, Gly, Glu and Gln), ions (Ni^2+, Ca^2+, Na^+, K^+, Cu^2+, Zn^2+, Mg^2+, NH4^+, Cu^+, Fe^2+ and CN^-) and GSH were measured. The concentration of these interfering factors was 5 μM. […] In this case, a visual high-throughput assay was established to screen hPL inhibitors, using RLE as a fluorogenic substrate in a 96-well microplate.

For `O=C(O)/C=C/c1ccccc1` [trans-Cinnamic acid], the “% of control remaining” value was 72.50%.
For `C#C[C@]1(O)CC[C@H]2[C@@H]3CCC4=CC(=O)CC[C@@H]4[C@H]3C(=C)C[C@@]21CC` [Etonogestrel], the “% of control remaining” value was 62.97%.
With `CC(=O)CC(c1ccccc1)c1c(O)c2ccccc2oc1=O` (stereo not shown) [Warfarin sodium] the “% of control remaining” value was 84.05%.
With `CCc1cc(C(N)=S)ccn1` [Ethionamide] the “% of control remaining” value was 91.71%.
`Nc1ccn([C@@H]2O[C@H](CO)[C@@H](O)C2(F)F)c(=O)n1` [Gemcitabine] was tested, and the “% of control remaining” value was 105.06%.
With `CC[C@H](C)C(=O)O[C@H]1C[C@@H](C)C=C2C=C[C@H](C)[C@H](CC[C@@H]3C[C@@H](O)CC(=O)O3)[C@H]21` [Lovastatin] the “% of control remaining” value was 80.96%.
`C#C[C@]1(O)CC[C@H]2[C@@H]3CCC4=CC(=O)CCC4=C3C=C[C@@]21CC` [Gestrinone] was tested, and the “% of control remaining” value was 66.72%.
`CC(=O)NC[C@H]1CN(c2ccc(N3CCOCC3)c(F)c2)C(=O)O1` [Linezolid] was tested, and the “% of control remaining” value was 91.81%.
In the case of `Nc1nnc(-c2cccc(Cl)c2Cl)c(N)n1` [Lamotrigine], the “% of control remaining” value is reported as 84.88%.
For `O=C(O)/C=C/c1ccc(O)cc1` [p-Coumaric acid], the “% of control remaining” value was 98.98%.
In the case of `COc1c2occc2cc2ccc(=O)oc12` [8-Methoxypsoralen], the “% of control remaining” value is reported as 90.65%.
In the case of `O=c1cc(-c2ccc(O)c(O)c2)oc2c([C@@H]3O[C@H](CO)[C@@H](O)[C@H](O)[C@H]3O)c(O)cc(O)c12` [Orientin], the “% of control remaining” value is reported as 76.06%.
With `Oc1cc(O)c2c(c1)OC(c1ccc(O)c(O)c1)C(OC1(c3ccc(O)c(O)c3)Oc3cc(O)cc(O)c3C(O)C1O)C2` (stereo not shown) [Procyanidin] the “% of control remaining” value was 5.72%.
`COc1c(OC)c2occc2c2oc(=O)ccc12` [Pimpinellin] was tested, and the “% of control remaining” value was 61.25%.
`O=C1C([C@@H]2O[C@H](CO)[C@@H](O)[C@H](O)[C@H]2O)=C(O)/C(=C(O)/C=C/c2ccc(O)cc2)C(=O)C1(O)[C@@H]1O[C@H](CO)[C@@H](O)[C@H](O)[C@H]1O` (stereo partly shown) [Hydroxysafflor yellow A] was tested, and the “% of control remaining” value was 76.59%.
For `CCc1c2c(nc3ccc(OC(=O)N4CCC(N5CCCCC5)CC4)cc13)-c1cc3c(c(=O)n1C2)COC(=O)[C@]3(O)CC` [Irinotecan], the “% of control remaining” value was 105.25%.
In the case of `COc1cc(O)c(CC=C(C)C)c(O)c1C(=O)/C=C/c1ccc(O)cc1` [Xanthohumol], the “% of control remaining” value is reported as 81.19%.
`O=C(NC[C@H]1CN(c2ccc(N3CCOCC3=O)cc2)C(=O)O1)c1ccc(Cl)s1` [Rivaroxaban] was tested, and the “% of control remaining” value was 118.66%.
In the case of `CCC(=O)O[C@H]1CC[C@H]2[C@@H]3CCC4=CC(=O)CC[C@]4(C)[C@H]3CC[C@]12C` [Testosterone propionate], the “% of control remaining” value is reported as 65.37%.
For `CC(C)=CCOc1c2occc2cc2ccc(=O)oc12` [Imperatorin], the “% of control remaining” value was 75.61%.
`CC(C)c1nc(CN(C)C(=O)N[C@H](C(=O)N[C@@H](Cc2ccccc2)C[C@H](O)[C@H](Cc2ccccc2)NC(=O)OCc2cncs2)C(C)C)cs1` [Ritonavir] was tested, and the “% of control remaining” value was 97.04%.
In the case of `COc1cc(-c2oc3cc(O)cc(O)c3c(=O)c2O[C@@H]2O[C@H](CO)[C@@H](O)[C@H](O)[C@H]2O)ccc1O` [Isorhamnetin-3-glucoside], the “% of control remaining” value is reported as 93.93%.
In the case of `NC(=O)N1c2ccccc2C[C@H](O)c2ccccc21` [Eslicarbazepine], the “% of control remaining” value is reported as 103.44%.
In the case of `CN(C/C=C/C#CC(C)(C)C)Cc1cccc2ccccc12` [Terbinafine Hydrochloride], the “% of control remaining” value is reported as 91.01%.
With `O=c1cc(-c2ccccc2)oc2cc(O)c(O)c(O)c12` [Baicalein] the “% of control remaining” value was 48.80%.
For `NCC[C@H](O)C(=O)N[C@@H]1C[C@H](N)[C@@H](O[C@H]2O[C@H](CN)[C@@H](O)[C@H](O)[C@H]2O)[C@H](O)[C@H]1O[C@H]1O[C@H](CO)[C@@H](O)[C@H](N)[C@H]1O` [Amikacin], the “% of control remaining” value was 73.77%.
With `CC(C)Oc1ccc2c(=O)c(-c3ccccc3)coc2c1` [Ipriflavone] the “% of control remaining” value was 84.50%.
In the case of `CN1CCN(C2=Nc3cc(Cl)ccc3Nc3ccccc32)CC1` [Clozapine], the “% of control remaining” value is reported as 97.86%.
For `COc1cc(/C=C/C(=O)CC(=O)/C=C/c2ccc(O)c(OC)c2)ccc1O` [Curcumin], the “% of control remaining” value was 75.83%.
In the case of `CC(NC(C)(C)C)C(=O)c1cccc(Cl)c1` (stereo not shown) [bupropion hydrochloride], the “% of control remaining” value is reported as 120.79%.
With `COc1ccc2c(c1)[C@]13CCCC[C@@H]1[C@H](C2)N(C)CC3` [Dextromethorphan] the “% of control remaining” value was 89.61%.
`COc1ccc(-c2cc(=O)c3c(O)cc(O)c(-c4cc(-c5cc(=O)c6c(O)cc(O)cc6o5)ccc4OC)c3o2)cc1` [Isoginkgetin] was tested, and the “% of control remaining” value was 54.78%.
In the case of `CCOC(=O)C1=C(C)NC(C)=C(C(=O)OC)C1c1cccc([N+](=O)[O-])c1` (stereo not shown) [Nitrendipine], the “% of control remaining” value is reported as 92.86%.
In the case of `COC(=O)[C@H]1[C@H]2C[C@@H]3c4[nH]c5cc(OC)ccc5c4CCN3C[C@H]2C[C@@H](OC(=O)c2cc(OC)c(OC)c(OC)c2)[C@@H]1OC` [Reserpine], the “% of control remaining” value is reported as 94.24%.
`COC(=O)C1=C(C)NC(C)=C(C(=O)OCC(C)C)C1c1ccccc1[N+](=O)[O-]` (stereo not shown) [Nisoldipine] was tested, and the “% of control remaining” value was 75.08%.
In the case of `C=C1C(=O)O[C@@H]2C[C@@]3(C)CCCC(=C)[C@@H]3C[C@H]12` [Isoalantolactone], the “% of control remaining” value is reported as 70.02%.
For `NCCc1ccc(O)c(O)c1` [3-Hydroxytyramine hydrochloride], the “% of control remaining” value was 86.11%.
`CCC(CC)COC(=O)[C@H](C)N[P@](=O)(OC[C@H]1O[C@@](C#N)(c2ccc3c(N)ncnn23)[C@H](O)[C@@H]1O)Oc1ccccc1` [Remdesivir] was tested, and the “% of control remaining” value was 98.67%.
In the case of `CN(C)CCCN1c2ccccc2CCc2ccccc21` [Imipramine hydrochloride], the “% of control remaining” value is reported as 92.51%.
For `COc1ccc(-c2coc3cc(O[C@@H]4O[C@H](CO)[C@@H](O)[C@H](O)[C@H]4O)ccc3c2=O)cc1O` [Calycosin 7-O-glucoside], the “% of control remaining” value was 84.02%.
In the case of `CC(C)(C)NCC(O)c1cc(O)cc(O)c1` (stereo not shown) [Terbutaline], the “% of control remaining” value is reported as 108.89%.
`C[C@@H]1O[C@@H](Oc2c(-c3cc(O)c(O)c(O)c3)oc3cc(O)cc(O)c3c2=O)[C@H](O)[C@H](O)[C@H]1O` [Myricitrin] was tested, and the “% of control remaining” value was 91.12%.
`COc1ccc(CCC(=O)c2ccc(O)cc2)c(OC)c1` [Loureirin A] was tested, and the “% of control remaining” value was 67.52%.
In the case of `O=c1ccc2cc(O)c(O)cc2o1` [Esculetin], the “% of control remaining” value is reported as 86.12%.
In the case of `COC1=C[C@@H]2[C@@H]3Cc4ccc(OC)c(O)c4[C@]2(CCN3C)CC1=O` [Sinomenine], the “% of control remaining” value is reported as 101.42%.
In the case of `C[C@]12C=CC(=O)C=C1CC[C@@H]1[C@@H]2[C@@H](O)C[C@@]2(C)[C@H]1CC[C@]2(O)C(=O)CO` [Prednisolone], the “% of control remaining” value is reported as 82.34%.
In the case of `CC(C)=CC[C@@H](O)C1=CC(=O)c2c(O)ccc(O)c2C1=O` [Shikonin], the “% of control remaining” value is reported as 107.55%.
`CCC1=C[C@@H]2CN3CCc4c([nH]c5ccccc45)[C@@](C(=O)OC)(C2)[C@@H]13` [Catharanthine] was tested, and the “% of control remaining” value was 81.11%.
In the case of `CCCCC1OC(=O)C2=C1CCC=C2` (stereo not shown) [3-N-butyl-4,5-dihydrophthalide], the “% of control remaining” value is reported as 75.65%.
`C/C=C(/C)C(=O)O[C@H]1[C@@H](OC(=O)CC(C)C)c2c(ccc3ccc(=O)oc23)OC1(C)C` [Praeruptorin E] was tested, and the “% of control remaining” value was 87.81%.
`COc1cc2/c(=N/c3ccc(Br)cc3F)nc[nH]c2cc1OCC1CCN(C)CC1` [Vandetanib] was tested, and the “% of control remaining” value was 104.95%.
With `O=c1cc(-c2ccc(O)cc2)oc2cc(O)c([C@@H]3O[C@H](CO)[C@@H](O)[C@H](O)[C@H]3O)c(O)c12` [Isovitexin] the “% of control remaining” value was 79.86%.
